# Experimental data taken from patent publication US11505530B2, “1,8-naphthalimide derivative, preparation method therefor and use thereof” (SOOCHOW UNIVERSITY, priority 2018, dated 2022).
# Tests used:
# Type in all cases: physicochemical
# [1] = UV-Vis absorption response of BNGT to pH; settings: for maximum absorption wavelength: BNGT 10 μM
# Experimental: Preparing a 1.0×10^−3 mol/L BNGT stock solution with acetonitrile as a solvent, and transferring 100 μL of the BNGT stock solution respectively into three series of 10 mL volumetric flasks; adding 7 mL of deionized water to the first series of volumetric flasks, adding 2 mL of deionized water and 5 ml of acetonitrile to the second series of volumetric flasks, and adding 1 mL of deionized water and 8 ml of acetonitrile to the third series of volumetric flasks; then titrating to the desired pH value respectively with 0.1 M NaOH and 0.1 M HCl aqueous solutions, and finally making up to volume with deionized water to obtain an acetonitrile/water solution of BNGT with different pHs in three solvent systems, the volume ratios of acetonitrile/water in the three solvent systems being 1/99, 1/1 and 8/2, respectively.
# Therefore, in the three solvents (acetonitrile/water in a volume ratio of 1/99, 1/1 and 8/2), BNGT could be used as a pH colorimetric switch by means of three ways (a maximum absorption wavelength, absorbance and color).
# [2] = Speed of response of BNGT to pH; settings: three solvents
# Text: To investigate the speed of response of BNGT to pH, adding 1 M NaOH aqueous solution to an acetonitrile/water (in a volume ratio of 1/99 (a), 1/1 (b) and 8/2 (c)) solution of BNGT at pH 5.8 to adjust the pH to 6.0; measuring the UV-Vis absorption spectrum of the solution before and after the adjustment, and plotting the maximum absorption wavelength and color over time, with the results as shown in FIG. 8; solvent: acetonitrile/water, in a volume ratio of 1/99 (a), 1/1 (b) and 8/2 (c); concentration: BNGT 10 μM.
# The absorbance was plotted against time and the results were shown in FIG. 9; solvent: acetonitrile/water, in a volume ratio of 1/99 (a), 1/1 (b) and 8/2 (c); concentration: BNGT 10 μM; absorption wavelength: 527 nm, 535 nm and 537 nm.
# [3] = Reversibility of BNGT as pH colorimetric switch; settings: pH alternating between 5.8 and 6.0
# Text: 1 M HCl and 1 M NaOH were used to make the pH value of the acetonitrile/water (in a volume ratio of 1/99 (a), 1/1 (b) and 8/2 (c)) solution of BNGT alternately change between 5.8 and 6.0, so as to determine the UV-Vis absorption spectrum of the solution.
# First, the reversibility of response of the maximum absorption wavelength and color of the solution to pH was investigated, with the results as shown in FIG. 12; solvent: acetonitrile/water, in a volume ratio of 1/99 (a), 1/1 (b) and 8/2 (c); concentration: BNGT 10 μM.
# Second, the reversibility of response of the absorbance of BNGT to pH at 527 nm, 535 nm and 537 nm was investigated, with the results as shown in FIG. 13; solvent: acetonitrile/water, in a volume ratio of 1/99 (a), 1/1 (b) and 8/2 (c); concentration: BNGT 10 μM; the maximum absorption wavelengths corresponding to the absorbance of the three solutions were 527 nm, 535 nm and 537 nm, respectively. It can be seen from the figure that the pH value alternated between 5.8 and 6.0, and the absorbance of the acetonitrile/water (in a volume ratio of 1/99 (a), 1/1 (b) and 8/2 (c)) solution of BNGT also changed circularly from small to large at 527 nm, 535 nm and 537 nm, respectively.
# [4] = Effect of coexisting metal ions on BNGT as pH colorimetric switch; settings: pH 5.8 and pH 6.0, metal ions 100 μM
# Experimental: In order to understand the interference of common metal ions on BNGT as a pH colorimetric switch, Fe^2+, Fe^3+, Cu^2+, K^+, Na^+, Mg^2+, Ag^+, Zn^2+, Cr^3+, Cd^2+, […], Ni^2+, Mn^2+, Pb^2+, Hg^2+ and Ca^2+ were added to the acetonitrile/water (in a volume ratio of 1/99 (a), 1/1 (b) and 8/2 (c)) solution, and the UV-Vis absorption spectra of the solution before and after the addition of these metal ions were obtained. […]
# Second, the effect of coexisting metal ions on the absorbance of the solution at 527 nm, 535 nm and 537 nm was investigated, with the results as shown in FIG. 11; solvent: acetonitrile/water, in a volume ratio of 1/99 (a), 1/1 (b) and 8/2 (c); concentration: BNGT 10 μM, metal ions 100 μM; 1: none, 2: Ca^2+, 3: Mg^2+, 4: Ag^+, 5: Pb^2+, 6: Cu^2+, 7: Mn^2+, 8: Co^2+, 9: Cd^2+, 10: Ni^2+, 11: K^+, 12: Na^+, 13: Fe^3+, 14: Zn^2+, 15: Cr^2+, 16: Hg^2+, 17: Fe^2+; absorption wavelength: 527 nm, 535 nm and 537 nm. […] Therefore, the aforementioned metal ions had little effect on the response of BNGT to pH in terms of enhanced absorbance.
# [5] = pH 5.8 to 6.0, acetonitrile/water 1/1
# [6] = pH 5.8 to 6.0, acetonitrile/water 1/99
# [7] = pH 5.8 to 6.0, acetonitrile/water 8/2
smiles,measurement,setting,value
CCCCN1C(=O)c2cccc3c(NN=CC=NC(CO)(CO)CO)ccc(c23)C1=O [BNGT],maximum absorption wavelength,"[1]; pH 1.9 to 5.8, acetonitrile/water 1/1",around 420 nm
same,maximum absorption wavelength,"[1]; pH 1.9 to 5.8, acetonitrile/water 1/99",around 432 nm
same,maximum absorption wavelength,"[1]; pH 1.9 to 5.8, acetonitrile/water 8/2",around 422 nm
same,increase of absorbance at 535 nm,[1]; [5],about 20 times
same,red shift of maximum absorption wavelength,[1]; [5],115 nm
same,increase of absorbance at 527 nm,[1]; [6],about 6 times
same,red shift of maximum absorption wavelength,[1]; [6],95 nm
same,increase of absorbance at 537 nm,[1]; [7],about 28 times
same,red shift of maximum absorption wavelength,[1]; [7],115 nm
same,maximum absorption wavelength,"[1]; pH 6.0 to 12.0, acetonitrile/water 1/1",around 535 nm
same,maximum absorption wavelength,"[1]; pH 6.0 to 12.0, acetonitrile/water 1/99",about 527 nm
same,maximum absorption wavelength,"[1]; pH 6.0 to 12.0, acetonitrile/water 8/2",around 537 nm
same,stability of absorbance for the next 30 min,[2]; after pH adjusted to 6.0,remained basically stable
same,time for absorbance to reach the maximum,"[2]; pH 5.8 adjusted to 6.0 with NaOH, 527 nm, 535 nm and 537 nm",about 2 min
same,color change,[2]; pH changed from 5.8 to 6.0,colorless to red
same,reversibility of response of absorbance to pH,"[3]; 527 nm, 535 nm and 537 nm",very good reversibility
same,reversibility of response of maximum absorption wavelength and color to pH,[3]; three solvents,good reversibility
same,effect of coexisting metal ions on absorbance,"[4]; 527 nm, 535 nm and 537 nm",did not change much
same,effect of coexisting metal ions on maximum absorption wavelength and color,"[4]; BNGT 10 μM, three solvents",almost unchanged
